The target of experiment [1] is T1, RARβ (Homo sapiens, UniProt P10826).
T1 sequence (P10826 183-417 limits assumed): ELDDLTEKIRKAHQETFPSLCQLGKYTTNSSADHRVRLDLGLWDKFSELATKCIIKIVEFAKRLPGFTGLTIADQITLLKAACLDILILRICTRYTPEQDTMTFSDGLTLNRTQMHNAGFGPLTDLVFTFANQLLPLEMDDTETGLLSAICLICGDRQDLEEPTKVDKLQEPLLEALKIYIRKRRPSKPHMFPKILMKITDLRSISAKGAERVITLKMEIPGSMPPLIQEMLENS
Kind of experiment: chimeric receptor transactivation assay (agonist-like activity). The experiment is classed as cell-based. Details: RAR EC50 (nM) (% Efficiency) β. The following applies: read-out: RAR EC50 (nM) (% Efficiency) β. Here is the method:
(§1) Specifically, one assay in which the compounds were tested is a chimeric receptor transactivation assay which tests for agonist-like activity in the RARα, RARγ and RARγ receptor subtypes, and which is based on work published by Feigner P. L. and Holm M (1989) Focus, 112 is described in detail in U.S. Pat. No. 5,455,265. The specification of U.S. Pat. No. 5,455,265 is hereby expressly incorporated by reference.
(§2) A holoreceptor transactivation assay and a ligand binding assay which measure the antagonist/agonist like activity of the compounds of the invention, or their ability to bind to the several retinoid receptor subtypes, respectively, are described in published PCT Application No. WO WO93/11755 (particularly on pages 30-33 and 37-41) published on Jun. 24, 1993, the specification of which is also incorporated herein by reference. A detailed experimental procedure for holoreceptor transactivations has been described by Heyman et al. Cell 68, 397-406, (1992); Allegretto et al. J. Biol. Chem. 268, 26625-26633, and Mangelsdorf et al. The Retinoids: Biology, Chemistry and Medicine, pp 319-349, Raven Press Ltd., New York, which are expressly incorporated herein by reference. The results obtained in this assay are expressed in EC50 numbers, as they are also in the chimeric receptor transactivation assay. The other functional assay running in the presence of 1 nM all-trans retinoic acid, namely PGA-RAR antagonist assay (utilizing glucocorticoid-retinoid chimeric receptors), is a modified chimeric receptor transactivation assay which tests the compounds for their antagonist-like activity in the RARα, RARγ and RARγ receptor subtypes. The results from this assay are normally expressed in IC50 numbers (See Teng et al. J. Med. Chem. 40, 2445-2452, (1997) incorporated herein by reference.)

Experiment [2] deals with T2, RARβ (Homo sapiens, UniProt P10826).
T2 sequence (P10826 1-455): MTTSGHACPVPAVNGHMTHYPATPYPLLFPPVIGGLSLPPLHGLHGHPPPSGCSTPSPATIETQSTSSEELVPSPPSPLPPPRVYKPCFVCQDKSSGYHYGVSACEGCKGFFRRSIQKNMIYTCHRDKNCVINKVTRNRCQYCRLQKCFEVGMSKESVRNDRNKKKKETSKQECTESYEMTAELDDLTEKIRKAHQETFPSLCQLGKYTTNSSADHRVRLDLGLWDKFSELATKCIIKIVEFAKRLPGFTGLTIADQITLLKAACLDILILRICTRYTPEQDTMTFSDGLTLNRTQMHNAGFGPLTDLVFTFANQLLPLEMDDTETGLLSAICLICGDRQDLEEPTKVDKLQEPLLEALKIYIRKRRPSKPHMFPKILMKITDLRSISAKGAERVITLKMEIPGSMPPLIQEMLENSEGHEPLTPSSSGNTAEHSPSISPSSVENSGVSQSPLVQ
Kind of experiment: ligand binding assay. Particulars: expressed in Ki numbers, read-out: RAR Binding β.
Description: as §2
(§3) The results of the ligand binding assay are expressed in Ki numbers. (See Cheng et al. Biochemical Pharmacology Vol. 22 pp 3099-3108, expressly incorporated herein by reference.)

Experiment [3] has as its target T3, RARα (Homo sapiens, UniProt P10276).
T3 sequence (P10276 1-462): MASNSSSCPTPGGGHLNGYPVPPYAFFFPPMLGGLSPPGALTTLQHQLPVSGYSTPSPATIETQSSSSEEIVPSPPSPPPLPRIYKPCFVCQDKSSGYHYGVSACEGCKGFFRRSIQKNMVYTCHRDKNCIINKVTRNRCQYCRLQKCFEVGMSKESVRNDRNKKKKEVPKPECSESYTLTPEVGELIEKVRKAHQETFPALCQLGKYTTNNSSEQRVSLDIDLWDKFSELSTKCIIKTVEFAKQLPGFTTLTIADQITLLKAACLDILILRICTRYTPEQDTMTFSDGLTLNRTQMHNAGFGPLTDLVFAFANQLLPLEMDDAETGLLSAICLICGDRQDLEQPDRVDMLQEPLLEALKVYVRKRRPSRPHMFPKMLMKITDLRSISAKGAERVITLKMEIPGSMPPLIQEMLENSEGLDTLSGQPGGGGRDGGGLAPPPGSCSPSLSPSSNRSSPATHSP
The experiment in a line: ligand binding assay. Particulars: expressed in Ki numbers, read-out: RAR Binding α.
Description: as §2, §3

The target in experiment [4] is T4, RARα (Homo sapiens, UniProt P10276).
T4 sequence (P10276 183-417 limits assumed): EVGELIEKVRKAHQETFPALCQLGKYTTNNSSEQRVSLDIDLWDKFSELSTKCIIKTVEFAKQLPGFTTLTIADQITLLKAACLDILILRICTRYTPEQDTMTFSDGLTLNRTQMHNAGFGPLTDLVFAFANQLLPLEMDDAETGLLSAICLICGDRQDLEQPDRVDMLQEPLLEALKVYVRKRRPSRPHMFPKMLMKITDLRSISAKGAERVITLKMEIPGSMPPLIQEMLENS
Kind of experiment: chimeric receptor transactivation assay (agonist-like activity). Type of experiment: cell-based. On the set-up: RAR EC50 (nM) (% Efficiency) α. The following applies: read-out: RAR EC50 (nM) (% Efficiency) α. Here is the method: as §1, §2

Drawing on US7432388B2 (Allergan, Inc., priority 2003, dated 2008), this text covers EC50 and Ki for nine compounds.

For orientation: EC50 means the midpoint of the concentration-response curve. As for `Cc1ccc(C2=CCC(C)(C)c3cc(C(/C=C/c4ccc(C(=O)O)cc4)=N/O)ccc32)cc1` [Compound 7a, E-4-[3-(8,8-Dimethyl-5-p-tolyl-7,8-dihydro-naphthalen-2-yl)-3-hydroxyimino-propenyl]-benzoic acid], the EC50 on RARβ [1] and on RARα [4] was more than 10000 nM throughout. Also, the Ki at RARβ [2] turned out to be 5 µM; on RARα [3] it was 3 µM.

For the compound `Cc1ccc(C2=CC(C)(C)c3cc(C(/C=C/c4ccc(C(=O)O)cc4)=N/O)ccc32)cc1` [Compound 16a], the concentration for a half-maximal effect (EC50) at RARβ [1] and at RARα [4] was more than 10000 nM in each case. Further, the results for the Ki at RARβ [2] and on RARα [3] were 10 µM and 9 µM, respectively.

Take `Cc1ccc(C2=CCC(C)(C)c3cc(C(/C=C/c4ccc(C(=O)O)cc4)=N\O)ccc32)cc1` [Compound 7b, Z-4-[3-(8,8-dimethyl-5-p-tolyl-7,8-dihydro-naphthalen-2-yl)-3-hydroxyimino-propenyl]-benzoic acid]: the EC50 at RARβ [1] and on RARα [4] was more than 10000 nM in each case. The Ki on RARβ [2] is 1.9 µM; on RARα [3], 5.2 µM.

Turning to `Cc1ccc(C2=CCC(C)(C)c3cc(C(/C=C/c4ccc(C(=O)O)cc4F)=N\O)ccc32)cc1` [Compound 9b, Z-4-[3-(8,8-Dimethyl-5-p-tolyl-7,8-dihydro-naphthalen-2-yl)-3-hydroxyimino-propenyl]-3-fluoro-benzoic acid], the EC50 at RARβ [1] and on RARα [4] was more than 10000 nM in each case. Further, the values for the Ki at RARβ [2] and at RARα [3] were 10 µM and 13 µM, respectively.

With `Cc1ccc(C2=CC(C)(C)c3cc(C(/C=C/c4ccc(C(=O)O)cc4)=N\O)ccc32)cc1` [Compound 16b], the EC50 at RARβ [1] and at RARα [4] was more than 10000 nM each time. Further, the results for the Ki on RARβ [2] and at RARα [3] were 10 µM and 7 µM, respectively.

`Cc1ccc(C2=CC(C)(C)c3cc(C(/C=C/c4ccc(C(=O)O)cc4F)=N\O)ccc32)cc1` [Compound 18b, Z-4-[3-(3,3-Dimethyl-1-p-tolyl-3H-inden-5-yl)-3-hydroxyimino-propenyl]-3-fluoro-benzoic acid]: the EC50 on RARβ [1] and at RARα [4] was more than 10000 nM each time. The Ki came out at 10 µM on RARβ [2] and 23 µM at RARα [3].

Regarding `Cc1ccc(C2=CC(C)(C)c3cc(C(/C=C/c4ccc(C(=O)O)cc4F)=N/O)ccc32)cc1` [Compound 18a, E-4-[3-(3,3-Dimethyl-1-p-tolyl-3H-inden-5-yl)-3-hydroxyimino-propenyl]-3-fluoro-benzoic acid], the EC50 at RARβ [1] and on RARα [4] was more than 10000 nM throughout. In addition, the figures for the Ki at RARβ [2] and on RARα [3] were 10 µM and 12 µM, respectively.

With `Cc1ccc(C2=CCC(C)(C)c3cc(C(/C=C/c4ccc(C(=O)O)cc4F)=N/O)ccc32)cc1` [Compound 9a, E-4-[3-(8,8-Dimethyl-5-p-tolyl-7,8-dihydro-naphthalen-2-yl)-3-hydroxyimino-propenyl]-3-fluoro-benzoic acid], the half-maximal effective concentration (EC50) at RARβ [1] and at RARα [4] was more than 10000 nM in each case. Moreover, the values for the Ki at RARβ [2] and at RARα [3] were 15 µM and 13 µM, respectively.

`Cc1ccc(C2=CCC(C)(C)c3cc(C(/C=C/c4ccc(C(=O)O)cc4)=NO)ccc32)cc1` (racemic) [Compound 7c, 4-[3-(8,8-Dimethyl-5-p-tolyl-7,8-dihydro-naphthalen-2-yl)-3-hydroxyimino-propenyl]-benzoic acid]: the EC50 at RARβ [1] and at RARα [4] was more than 10000 nM in each case. The Ki turned out to be 1.3 µM on RARβ [2] and 2.9 µM on RARα [3].
